Measurements as given in article PMC10464297, “Reevaluation of bromodomain ligands targeting BAZ2A” (Protein Science : A Publication of the Protein Society, 2023).
Entries after “also recorded” stand apart in the source; their conditions may differ.

Tests used:
[1] = test system: PC3 (AR‐negative) PCa cells; test: 2D proliferation assay (resazurin), PC3; format: cell-based
Method: Cell cultures, proliferation assay and spheroid gro wth […]
streptomycin and 2 m M L-glutamine. All cells were regularly tested for mycoplasma contamination.
For the proliferation assay, cells were counted with a hemocytometer and seeded in triplicates in 96-well plates (4 .5x10^3 cells/well for 22Rv1 and 2.0x103 for PC3) and let adhere overnight at 37°C, […]
transfected with siRNA for BAZ2A , RLUC or KIF11, as detailed below. The cells were incubated for 1, 3, 6 (PC3) and 9 days (22Rv1) and the medium containing either the carrier or the inhibitors was replaced every 3 day s. Cell proliferation and viability were determined at day 1, 3, 6 and 9 by adding 10% resazurin sodium salt solution (0. 03 mg/ml powder from Sigma -Aldrich) directly into each well and incubating them for 4h at 37°C, 5% CO 2. The absorbance at 570/600 nm was measured using a Varioskan plate reader. The reduction of the resazur in sodium salt was calculated using the formula: (Abs x – Abs 0. 1%DMSO day1)/(Abs 0. 1%DMSO day9 - Abs 0. 1%DMSO day1). The growth rate was analysed using the linear regression algorithm of GraphPad Prism. […]

22Rv1 spheroids = test: Spheroid growth (3D), 22Rv1; format: cell-based
Method: Cell cultures, proliferation assay and spheroid gro wth
PC3 and 22Rv1 cells were cultured in RPMI 1640 medium containing 10% FBS, 1% penicillin-streptomycin and 2 m M L-glutamine. All cells were regularly tested for mycoplasma contamination. […]
Spheroids were obtained by plating PC3 and 22Rv1 cells in low -adhesion round bottom 96 -well plates. For 22Rv1, 2500 cells/well were seeded in 200 µl RPMI 1640; for PC3, 250 cells/well were seeded in 200 µl RPMI 1640 supplemented with 1.5% Matrigel. After seeding, the cells were centrifuged for 10 min at 1200 x g at 4°C. Spheroids were given 48 hours to form after seeding before adding the treatment or the carrier (0.1% DMSO). Medium supplemented with treatment/carrier was changed every 48 hours, for a total of 32 days for 22Rv1 and 16 days for PC3. Each spheroid was imaged in brightfield every day or every other day (after day 20), using a Leica DM IL microscope […]
equipped with a Leica DFC450C digital camera. The area of each spheroid was measured using ImageJ and the average area for each condition was calculated. The growth rate was analysed using the segmental linear regression algorithm of GraphPad Prism. The appropriateness of the model was evaluated by considering the R square values and the Replicates test (Suppl. Table 6). […]

TNBC cells = test system: TNBC cells; parameters: method as in Bevill et al., [2019]; settings: single agent; ref Bevill et al., [2019]; cited from earlier work
[2] = test system: heterogeneous PCa cell population; parameters: method as in Peña‐Hernández et al., [2021]; settings: ref Peña‐Hernández et al., [2021]; cited from earlier work
PCa cancer stem cells = test system: PCa cancer stem cells; parameters: method as in Peña‐Hernández et al., [2021]; settings: ref Peña‐Hernández et al., [2021]; cited from earlier work

Structure (SMILES): Cn1cc(CCn2cnc(-c3cnn(C)c3)c2-c2ccc(C#N)cc2)cn1 [BAZ2‐ICR]
- effect on 2D growth of PC3 cells ([1]; 2D‐cell culture, PC3): did not affect growth; also recorded: but not BAZ2‐ICR, reduces 2D growth
- effect on viability of PC3 cells ([1]; 2D‐cell culture, PC3): did not affect growth or viability
- Slope (best-fit, linear regression of growth curve) ([1]; PC3, 0.5 µM): 0,1625
- Slope (best-fit, linear regression of growth curve) ([1]; PC3, 5 µM): 0,1599
- Slope (best-fit, linear regression of growth curve) ([1]; PC3, 10 µM): 0,1532
- Slope (best-fit, linear regression of growth curve) ([1]; PC3, 25 µM): 0,1580
- effect on growth of 22Rv1 spheroids (22Rv1 spheroids; 3D setting, GSK2801 25 μM, BAZ2‐ICR 25 μM, BI9564 20 μM): similarly affect the growth of 22Rv1 cells; also recorded: interestingly impacting those deriving from 22Rv1 cells
- slope2 (segmental linear regression of spheroid growth) (22Rv1 spheroids; 22Rv1 spheroids, 25 µM, after X0 = day 9): 10618
- slope1 (segmental linear regression of spheroid growth) (22Rv1 spheroids; 22Rv1 spheroids, 25 µM, before X0 = day 9): 17642
- effect on TNBC cells (TNBC cells): did not affect TNBC cells
- proliferation of heterogeneous PCa cell population [2]: does not affect the proliferation
- efficacy on PCa cancer stem cells (PCa cancer stem cells): effective on PCa cancer stem cells
